According to US20060258671A1, “Phenylpyridylpiperazine compounds” (priority 2005, published 2006):

Biological target: T1, type H3 central histamine receptors (Mus musculus, UniProt P58406)
T1 construct: from tissue; host or cells: brain of living NMRI mice, treated in vivo; brains removed afterwards for the metabolite RIA
Assay: Cerebral levels of Nτ-methylhistamine in the NMRI mouse (ex vivo, RIA)
Details: one hour after treatment
Description: The purpose of this study, which was carried out in accordance with the method of Taylor et al. (Biochem. Pharm., 1992, 44, 1261-1267), is to evaluate the ex vivo activity of the compounds of the present invention as antagonists of type H3 central histamine receptors. […] An increase in the cerebral concentrations of N^τ-methylhistamine indicates an increase in the turn-over of histamine by blockage of the type H3 central histamine receptors.
NMRI mice (18-20 g) are treated intraperitoneally or orally with compounds of the present invention or with their carrier (20 ml/kg). One hour after the pharmacological treatment, the animals are sacrificed, and their brains are removed, frozen in liquid nitrogen, weighed and homogenised in 0.1N HClO4 at 4° C. The homogenised products are centrifuged (15 000 g, 17 min, 4° C.). The supernatants are recovered and divided into aliquots. The aliquots are frozen in liquid nitrogen and stored at −80° C. until analysis.
Determination of the cerebral levels of N′-methylhistamine is carried out by radio-immunological assay (RIA) using an assay kit. The tissue levels of N^τ-methylhistamine are expressed in μg/g of fresh brain. […]

T1 sequence (P58406 whole entry): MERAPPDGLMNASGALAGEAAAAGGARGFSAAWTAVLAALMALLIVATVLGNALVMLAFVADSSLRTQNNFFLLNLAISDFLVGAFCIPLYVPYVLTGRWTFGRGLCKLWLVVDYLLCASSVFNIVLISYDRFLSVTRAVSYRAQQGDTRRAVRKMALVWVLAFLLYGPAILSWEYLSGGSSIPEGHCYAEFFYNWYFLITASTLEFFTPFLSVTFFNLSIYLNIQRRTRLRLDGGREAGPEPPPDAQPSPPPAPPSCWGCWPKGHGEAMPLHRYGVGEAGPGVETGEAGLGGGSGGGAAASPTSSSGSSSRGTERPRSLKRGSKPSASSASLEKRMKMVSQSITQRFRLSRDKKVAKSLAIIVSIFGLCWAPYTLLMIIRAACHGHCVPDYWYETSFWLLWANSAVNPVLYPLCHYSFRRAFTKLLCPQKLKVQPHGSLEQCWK

Compound | increase in the endogenous cerebral concentrations of Nτ-methylhistamine (10 mg/kg PO) [%] | increase in the endogenous cerebral concentrations of Nτ-methylhistamine (3 mg/kg PO) [%]
CS(=O)(=O)Nc1ccc(-c2ccc(N3CCN(C4CC4)CC3)nc2)cc1.Cl.Cl [Example 4, N-{4-[6-(4-Cyclopropylpiperazin-1-yl)pyridin-3-yl]phenyl}methane-sulphonamide dihydrochloride] | 162 | –
CC(C)N1CCN(c2ccc(-c3ccc(NS(=O)(=O)C(C)C)cc3)cn2)CC1.Cl.Cl [Example 7, N-{4-[6(4-Isopropylpiperazin-1-yl)pyridin-3-yl]phenyl}propane-2-sulphonamide dihydrochloride] | – | 138
